Experimental data as given in ChEMBL document CHEMBL5465560, “Selectivity Literature for EUbOPEN Chemogenomic Library” (2024).

Columns and labels:
[1] = target: Histone-lysine N-methyltransferase 2C (Homo sapiens) (UniProt Q8NEZ4); assay: Selectivity interaction (Methyltransferase screen (Scintillation proximity assays)) EUB0000255b MLL3
[2] = target: Calcium/calmodulin-dependent protein kinase type II subunit beta (Homo sapiens) (UniProt Q13554); assay: Selectivity interaction (KinomeScan (DiscoverX)) EUB0000229b CAMK2B; details: at 10 µM
[3] = target: T1, Serine/threonine-protein kinase PLK4 (Homo sapiens) (UniProt O00444); assay: Selectivity interaction (KinomeScan (DiscoverX)) EUB0000666a PLK4; details: at 10 µM
T1 sequence (whole entry): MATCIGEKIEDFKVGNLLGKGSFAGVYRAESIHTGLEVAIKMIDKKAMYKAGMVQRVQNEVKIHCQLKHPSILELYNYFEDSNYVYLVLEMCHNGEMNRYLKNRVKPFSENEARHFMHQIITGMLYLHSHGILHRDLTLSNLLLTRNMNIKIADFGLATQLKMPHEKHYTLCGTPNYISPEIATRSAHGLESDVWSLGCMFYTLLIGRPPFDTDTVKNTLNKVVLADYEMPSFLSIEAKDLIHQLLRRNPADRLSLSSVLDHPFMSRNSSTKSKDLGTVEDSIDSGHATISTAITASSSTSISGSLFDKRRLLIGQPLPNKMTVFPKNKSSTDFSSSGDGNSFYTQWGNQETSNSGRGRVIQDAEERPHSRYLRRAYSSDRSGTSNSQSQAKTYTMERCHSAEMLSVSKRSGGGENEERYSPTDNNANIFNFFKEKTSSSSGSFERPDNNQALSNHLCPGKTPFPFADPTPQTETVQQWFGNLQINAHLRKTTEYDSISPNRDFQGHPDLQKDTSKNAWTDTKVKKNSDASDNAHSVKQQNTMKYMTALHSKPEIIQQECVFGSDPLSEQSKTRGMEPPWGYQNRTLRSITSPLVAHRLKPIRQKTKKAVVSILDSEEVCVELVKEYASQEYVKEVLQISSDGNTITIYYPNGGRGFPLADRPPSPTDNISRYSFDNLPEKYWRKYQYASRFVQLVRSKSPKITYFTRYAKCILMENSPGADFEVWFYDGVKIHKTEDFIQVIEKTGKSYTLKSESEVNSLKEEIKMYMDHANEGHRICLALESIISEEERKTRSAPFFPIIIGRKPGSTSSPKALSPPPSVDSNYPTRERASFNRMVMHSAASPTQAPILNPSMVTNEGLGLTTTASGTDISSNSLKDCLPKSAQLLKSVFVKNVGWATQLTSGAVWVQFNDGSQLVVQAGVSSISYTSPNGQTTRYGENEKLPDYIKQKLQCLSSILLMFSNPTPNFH

[4] = target: T2, Dual specificity mitogen-activated protein kinase kinase 3 (Homo sapiens) (UniProt P46734); details: at 10 µM
T2 sequence (whole entry): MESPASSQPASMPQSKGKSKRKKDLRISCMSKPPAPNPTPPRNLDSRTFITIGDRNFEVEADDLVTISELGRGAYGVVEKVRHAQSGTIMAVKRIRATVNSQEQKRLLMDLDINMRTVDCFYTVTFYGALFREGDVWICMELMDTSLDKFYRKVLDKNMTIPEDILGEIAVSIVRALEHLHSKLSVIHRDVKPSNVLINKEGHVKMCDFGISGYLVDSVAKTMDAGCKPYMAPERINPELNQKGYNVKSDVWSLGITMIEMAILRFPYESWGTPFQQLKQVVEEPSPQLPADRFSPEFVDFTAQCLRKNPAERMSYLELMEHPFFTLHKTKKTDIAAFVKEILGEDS

[5] = tested on: Epidermal growth factor receptor (Homo sapiens), P00533 [UNDEFINED MUTATION]; details: at 10 µM
[6] = target: T3, Inhibitor of nuclear factor kappa-B kinase subunit epsilon (Homo sapiens) (UniProt Q14164); assay: Selectivity interaction (ActivX KiNativ screen (kinase selectivity in THP-1 cell lysates)) EUB0000639a IKBKE; assay type: subcellular; details: lysate, at 1 µM
T3 sequence (whole entry): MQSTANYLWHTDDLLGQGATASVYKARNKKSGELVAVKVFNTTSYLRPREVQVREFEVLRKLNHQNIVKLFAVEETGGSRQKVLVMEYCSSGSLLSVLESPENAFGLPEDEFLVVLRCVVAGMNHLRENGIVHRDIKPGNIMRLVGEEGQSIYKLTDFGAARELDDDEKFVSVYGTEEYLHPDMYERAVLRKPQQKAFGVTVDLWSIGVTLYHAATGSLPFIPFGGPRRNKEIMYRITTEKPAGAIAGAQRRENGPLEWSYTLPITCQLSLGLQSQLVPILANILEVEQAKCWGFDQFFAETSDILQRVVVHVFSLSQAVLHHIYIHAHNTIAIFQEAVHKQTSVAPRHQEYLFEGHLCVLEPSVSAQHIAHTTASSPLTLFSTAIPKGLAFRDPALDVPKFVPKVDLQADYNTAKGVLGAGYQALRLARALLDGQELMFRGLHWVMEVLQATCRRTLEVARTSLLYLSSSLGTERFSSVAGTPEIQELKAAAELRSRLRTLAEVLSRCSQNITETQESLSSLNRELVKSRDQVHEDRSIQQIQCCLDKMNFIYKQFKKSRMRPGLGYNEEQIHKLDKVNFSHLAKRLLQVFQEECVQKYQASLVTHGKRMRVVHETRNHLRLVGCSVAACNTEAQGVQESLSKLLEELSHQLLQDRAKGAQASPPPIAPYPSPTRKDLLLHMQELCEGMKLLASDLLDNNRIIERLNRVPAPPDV

[7] = target: Serine/threonine-protein kinase N2 (Homo sapiens, UniProt Q16513); details: at 10 µM

Sequence of Histone-lysine N-methyltransferase 2C (Homo sapiens) (Q8NEZ4 whole entry): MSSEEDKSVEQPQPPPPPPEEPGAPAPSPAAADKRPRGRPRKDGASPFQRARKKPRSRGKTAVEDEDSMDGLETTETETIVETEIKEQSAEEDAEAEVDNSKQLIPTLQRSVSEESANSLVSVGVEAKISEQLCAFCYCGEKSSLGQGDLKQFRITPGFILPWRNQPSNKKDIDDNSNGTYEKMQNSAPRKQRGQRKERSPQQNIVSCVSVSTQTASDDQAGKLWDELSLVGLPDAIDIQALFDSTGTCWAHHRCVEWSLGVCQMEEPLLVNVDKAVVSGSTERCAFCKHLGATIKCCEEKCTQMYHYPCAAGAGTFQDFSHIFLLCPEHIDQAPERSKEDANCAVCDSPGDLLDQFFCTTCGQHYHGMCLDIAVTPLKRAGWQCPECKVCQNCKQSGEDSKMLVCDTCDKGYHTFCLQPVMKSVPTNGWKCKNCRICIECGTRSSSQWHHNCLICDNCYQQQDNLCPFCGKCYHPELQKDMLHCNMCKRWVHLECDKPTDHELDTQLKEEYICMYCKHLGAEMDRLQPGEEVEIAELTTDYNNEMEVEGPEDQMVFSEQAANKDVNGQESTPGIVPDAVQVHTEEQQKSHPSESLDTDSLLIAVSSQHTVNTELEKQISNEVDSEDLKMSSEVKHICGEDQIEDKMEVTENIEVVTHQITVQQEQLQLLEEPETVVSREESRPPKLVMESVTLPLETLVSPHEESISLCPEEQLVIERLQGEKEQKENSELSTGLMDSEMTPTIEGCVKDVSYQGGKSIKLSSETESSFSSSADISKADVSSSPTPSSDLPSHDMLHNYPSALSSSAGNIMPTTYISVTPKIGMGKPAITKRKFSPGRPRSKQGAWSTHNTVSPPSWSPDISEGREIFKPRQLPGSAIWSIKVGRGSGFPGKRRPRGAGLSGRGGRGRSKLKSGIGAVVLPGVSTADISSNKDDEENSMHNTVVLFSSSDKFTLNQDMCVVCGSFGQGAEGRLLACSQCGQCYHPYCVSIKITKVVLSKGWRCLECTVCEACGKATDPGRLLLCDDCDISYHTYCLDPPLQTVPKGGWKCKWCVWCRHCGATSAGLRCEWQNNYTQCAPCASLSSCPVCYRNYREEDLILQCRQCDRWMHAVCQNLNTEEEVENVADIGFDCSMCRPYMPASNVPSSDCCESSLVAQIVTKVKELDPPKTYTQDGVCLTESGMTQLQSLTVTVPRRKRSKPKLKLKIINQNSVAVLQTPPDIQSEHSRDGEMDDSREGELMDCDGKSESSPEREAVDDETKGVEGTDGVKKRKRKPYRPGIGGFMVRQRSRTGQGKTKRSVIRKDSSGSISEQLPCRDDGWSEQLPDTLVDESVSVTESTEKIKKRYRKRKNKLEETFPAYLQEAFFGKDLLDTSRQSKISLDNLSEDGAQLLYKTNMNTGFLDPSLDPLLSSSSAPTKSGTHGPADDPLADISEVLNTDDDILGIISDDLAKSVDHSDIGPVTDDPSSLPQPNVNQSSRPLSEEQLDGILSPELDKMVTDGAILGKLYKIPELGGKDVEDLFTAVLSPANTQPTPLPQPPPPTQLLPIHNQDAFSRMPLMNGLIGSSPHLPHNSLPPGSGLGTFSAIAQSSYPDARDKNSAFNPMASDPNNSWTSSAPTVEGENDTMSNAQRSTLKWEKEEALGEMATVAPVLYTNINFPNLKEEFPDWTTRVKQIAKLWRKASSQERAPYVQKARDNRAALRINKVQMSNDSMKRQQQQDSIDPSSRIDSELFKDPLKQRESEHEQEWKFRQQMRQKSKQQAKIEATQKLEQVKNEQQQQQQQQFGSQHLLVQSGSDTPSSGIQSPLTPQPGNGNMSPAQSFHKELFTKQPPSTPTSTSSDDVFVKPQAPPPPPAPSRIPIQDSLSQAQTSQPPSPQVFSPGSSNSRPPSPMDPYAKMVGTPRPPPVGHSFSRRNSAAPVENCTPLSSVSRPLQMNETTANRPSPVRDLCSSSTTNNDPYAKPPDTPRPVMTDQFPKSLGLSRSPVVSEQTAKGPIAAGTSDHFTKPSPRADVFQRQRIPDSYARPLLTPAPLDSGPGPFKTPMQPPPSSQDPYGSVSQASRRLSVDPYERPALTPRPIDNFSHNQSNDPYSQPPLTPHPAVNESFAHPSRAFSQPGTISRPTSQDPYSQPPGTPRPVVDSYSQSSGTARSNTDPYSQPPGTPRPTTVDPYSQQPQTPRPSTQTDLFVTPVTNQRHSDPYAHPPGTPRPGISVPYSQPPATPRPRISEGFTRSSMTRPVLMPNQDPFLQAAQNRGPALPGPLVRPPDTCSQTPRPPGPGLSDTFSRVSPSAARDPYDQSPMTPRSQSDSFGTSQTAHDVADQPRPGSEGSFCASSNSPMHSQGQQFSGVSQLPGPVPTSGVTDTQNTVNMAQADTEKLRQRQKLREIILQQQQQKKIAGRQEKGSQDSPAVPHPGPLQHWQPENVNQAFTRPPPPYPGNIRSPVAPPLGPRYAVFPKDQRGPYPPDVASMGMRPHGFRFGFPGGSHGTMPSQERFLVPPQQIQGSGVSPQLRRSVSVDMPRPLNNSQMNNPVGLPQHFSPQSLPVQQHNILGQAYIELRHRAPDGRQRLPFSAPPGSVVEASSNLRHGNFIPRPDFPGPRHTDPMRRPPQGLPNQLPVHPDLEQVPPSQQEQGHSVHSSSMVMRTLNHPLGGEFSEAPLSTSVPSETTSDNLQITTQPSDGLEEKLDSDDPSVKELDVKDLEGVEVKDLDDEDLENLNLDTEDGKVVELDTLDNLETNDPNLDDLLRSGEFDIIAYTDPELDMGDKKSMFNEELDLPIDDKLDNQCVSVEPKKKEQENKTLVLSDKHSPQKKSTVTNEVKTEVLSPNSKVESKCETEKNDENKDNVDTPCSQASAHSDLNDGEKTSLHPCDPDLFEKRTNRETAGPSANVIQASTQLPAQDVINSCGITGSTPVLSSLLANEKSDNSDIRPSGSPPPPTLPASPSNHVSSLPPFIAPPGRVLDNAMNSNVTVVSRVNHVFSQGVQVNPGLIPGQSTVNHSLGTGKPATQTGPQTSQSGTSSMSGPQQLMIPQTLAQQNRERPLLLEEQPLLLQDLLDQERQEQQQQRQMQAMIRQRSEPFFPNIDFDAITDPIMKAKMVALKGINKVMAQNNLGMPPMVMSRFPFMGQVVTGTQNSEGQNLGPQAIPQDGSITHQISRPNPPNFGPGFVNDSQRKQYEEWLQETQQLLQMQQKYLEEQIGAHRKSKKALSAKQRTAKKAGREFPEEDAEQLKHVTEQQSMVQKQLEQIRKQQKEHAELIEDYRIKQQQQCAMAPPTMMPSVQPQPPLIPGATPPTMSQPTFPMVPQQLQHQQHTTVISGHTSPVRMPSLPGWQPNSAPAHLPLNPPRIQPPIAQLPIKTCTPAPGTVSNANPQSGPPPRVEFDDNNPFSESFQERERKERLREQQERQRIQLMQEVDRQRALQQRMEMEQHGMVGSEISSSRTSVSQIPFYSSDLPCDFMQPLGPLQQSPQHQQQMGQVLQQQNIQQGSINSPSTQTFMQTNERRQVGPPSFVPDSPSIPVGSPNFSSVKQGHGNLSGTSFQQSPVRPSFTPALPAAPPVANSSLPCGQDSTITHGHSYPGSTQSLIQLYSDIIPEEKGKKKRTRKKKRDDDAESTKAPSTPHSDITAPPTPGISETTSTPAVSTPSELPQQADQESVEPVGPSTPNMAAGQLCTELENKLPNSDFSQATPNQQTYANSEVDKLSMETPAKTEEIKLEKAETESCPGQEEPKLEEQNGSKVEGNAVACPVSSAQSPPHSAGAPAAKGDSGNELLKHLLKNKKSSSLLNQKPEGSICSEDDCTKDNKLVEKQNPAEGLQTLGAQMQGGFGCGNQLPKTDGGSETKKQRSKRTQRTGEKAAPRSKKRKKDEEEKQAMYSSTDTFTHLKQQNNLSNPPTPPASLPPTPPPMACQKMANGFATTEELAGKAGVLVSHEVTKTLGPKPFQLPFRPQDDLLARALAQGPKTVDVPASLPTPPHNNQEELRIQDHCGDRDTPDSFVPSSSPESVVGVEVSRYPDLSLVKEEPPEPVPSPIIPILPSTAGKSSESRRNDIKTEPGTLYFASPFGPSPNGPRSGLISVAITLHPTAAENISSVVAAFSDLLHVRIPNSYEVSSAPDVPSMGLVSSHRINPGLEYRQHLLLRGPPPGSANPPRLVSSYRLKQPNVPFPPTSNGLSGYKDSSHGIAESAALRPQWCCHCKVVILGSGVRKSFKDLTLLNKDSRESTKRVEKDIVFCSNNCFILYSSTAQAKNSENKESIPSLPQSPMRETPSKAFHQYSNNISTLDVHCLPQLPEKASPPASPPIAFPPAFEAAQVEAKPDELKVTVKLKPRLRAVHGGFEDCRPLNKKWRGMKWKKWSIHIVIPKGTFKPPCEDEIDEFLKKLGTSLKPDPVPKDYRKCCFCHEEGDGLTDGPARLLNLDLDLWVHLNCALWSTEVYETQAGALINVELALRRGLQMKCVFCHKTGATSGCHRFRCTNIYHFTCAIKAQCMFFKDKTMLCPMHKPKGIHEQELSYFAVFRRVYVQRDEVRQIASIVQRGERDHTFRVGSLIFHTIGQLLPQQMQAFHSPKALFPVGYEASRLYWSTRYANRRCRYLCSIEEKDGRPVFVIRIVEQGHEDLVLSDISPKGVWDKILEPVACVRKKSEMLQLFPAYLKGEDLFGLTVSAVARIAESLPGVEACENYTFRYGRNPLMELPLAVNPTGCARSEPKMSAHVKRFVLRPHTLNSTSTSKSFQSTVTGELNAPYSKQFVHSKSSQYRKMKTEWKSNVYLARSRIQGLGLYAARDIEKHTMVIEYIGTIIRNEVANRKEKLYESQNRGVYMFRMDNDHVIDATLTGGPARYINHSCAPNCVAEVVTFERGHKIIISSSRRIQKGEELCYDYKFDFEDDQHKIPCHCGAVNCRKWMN

## COCCN1CCC(c2cc(CN(C)C(=O)c3cccc(Oc4ccccc4)c3)ccn2)CC1
[1]; at 1 µM
  % activity: > 95%
[1]; at 10 µM
  % activity: > 90%

## COc1cc(N(C)c2ccnc3ccc(C(F)(F)F)cc23)cc(OC)c1OC
[2]
  % binding: 83%

## O=C(NOC[C@H](O)CO)c1ccc(F)c(F)c1Nc1ccc(I)cc1F
[3]
  % of control: 86%

## Cc1cc([C@@H](C)Nc2ccccc2C(=O)O)c2nc(N3CCOCC3)cc(=O)n2c1 [AZD-6482]
[4]
  % of control: 100%
[5]
  % of control: 100%

## CC[C@@H]1[C@H](F)C(=O)N[C@@H]1COc1nccc2cc(C(N)=O)c(OC)cc12 [ZIMLOVISERTIB]
[6]
  % of inhibition: 10%

## COCC(=O)NC/C=C/c1ccc2ncnc(Nc3ccc(Oc4ccc(C)nc4)c(C)c3)c2c1 [CP-724714]
[7]
  % of control: 99%
